Results: ChEMBL document CHEMBL3792319, “Synthesis and antitubercular activity of 1,2,4-trisubstitued piperazines” (Bioorg Med Chem Lett, 2016)
In brackets after ≈: the same amount, converted by molar mass.

Key:
[1] = tested on: Mycobacterium tuberculosis; test: Antitubercular activity against Mycobacterium tuberculosis H37Rv measured after 7 days under aerobic condition; type: functional, organism-based; conditions: 168 h
[2] = tested on: Mycobacterium tuberculosis; test: Antimicrobial activity against Mycobacterium tuberculosis H37Rv expressing bacterial luciferase measured after 10 days under hypoxia condition by LORA assay; type: functional; conditions: 240 h
[3] = tested on: Mycobacterium tuberculosis; test: Antitubercular activity against Mycobacterium tuberculosis H37Rv measured after 5 days under aerobic condition by two-fold serial dilution method; type: functional; conditions: 120 h
[4] = tested on: Mycobacterium tuberculosis; test: Bactericidal activity against Mycobacterium tuberculosis H37Rv measured upto 21 days; type: functional; conditions: 504 h
[5] = tested on: Mycobacterium tuberculosis; test: Antitubercular activity against Mycobacterium tuberculosis H37Rv expressing bacterial luciferase infected murine J774 macrophage cells assessed as reduction in cell count at 20 uM measured after 4 days by luminescence analysis; type: functional
[6] = tested on: Mycobacterium tuberculosis; test: Antitubercular activity against Mycobacterium tuberculosis H37Rv expressing bacterial luciferase infected murine J774 macrophage cells assessed as reduction in cell count at 200 uM measured after 4 days by luminescence analysis; type: functional

| SMILES | IC50 [1] | IC90 [1] | MIC [1] | MIC [2] | MIC [3] | MBC [4] | Activity [5] | Activity [6] |
| --- | --- | --- | --- | --- | --- | --- | --- | --- |
| CCC(C)[C@@H]1CN([C@H](CNC)Cc2ccccc2)CCN1CCC12CC3CC(CC(C3)C1)C2 (stereo partly drawn) | 20.2 µM | 35.5 µM | 50 µM (≈ 22.6 µg/mL) |  |  |  |  |  |
| CNC[C@@H](Cc1ccccc1)N1CCN(CCC23CC4CC(CC(C4)C2)C3)[C@H](C(C)C)C1 | 20.7 µM | 37 µM | 50 µM (≈ 21.9 µg/mL) | 52.2 µM (≈ 22.8 µg/mL) | 14 µM (≈ 6.13 µg/mL) | 114 µM (≈ 49.9 µg/mL) | 2.22 log10CFU |  |
| CNC[C@@H](Cc1ccccc1)N1CCN(CCC(c2ccccc2)c2ccccc2)CC1 | 23 µM | > 61 µM | 52.3 µM (≈ 22.4 µg/mL) | > 200 µM | 69 µM (≈ 29.5 µg/mL) | 20 µM (≈ 8.55 µg/mL) | 2.4 log10CFU | 2.4 log10CFU |
| CNC[C@@H](Cc1ccccc1)N1CCN(CCC23CC4CC(CC(C4)C2)C3)CC1 | 38 µM | 99 µM | 61.2 µM (≈ 24.2 µg/mL) | 74 µM (≈ 29.3 µg/mL) | 36 µM (≈ 14.2 µg/mL) | 100 µM (≈ 39.6 µg/mL) | 0 log10CFU | 2.7 log10CFU |
| CCCC[C@H](CNC)N1CCN(CCC23CC4CC(CC(C4)C2)C3)[C@H](C(C)CC)C1 (stereo partly drawn) | 21.2 µM | 33.7 µM | 50 µM (≈ 20.9 µg/mL) |  |  |  |  |  |
| CCC(C)[C@H](CNC)N1CCN(CCC23CC4CC(CC(C4)C2)C3)[C@H](CO)C1 (stereo partly drawn) |  | > 100 µM | > 100 µM |  |  |  |  |  |
| CC[C@H](C)[C@@H]1CN([C@@H](CNC)Cc2ccccc2)CCN1CC(C)(C)C | 190 µM | > 200 µM | > 200 µM |  |  |  |  |  |
| CCC(C)[C@@H](CNC)N1CCN(CCc2ccc(C)cc2)CC1 (stereo partly drawn) | 37 µM | 110 µM | 93.9 µM (≈ 29.8 µg/mL) |  |  |  |  |  |
| CCC(C)[C@@H]1CN([C@@H](CNC)Cc2ccccc2)CCN1CCC12CC3CC(CC(C3)C1)C2 (stereo partly drawn) | 17 µM | 38 µM | 37.7 µM (≈ 17 µg/mL) | 9.8 µM (≈ 4.43 µg/mL) | 41 µM (≈ 18.5 µg/mL) | 5 µM (≈ 2.26 µg/mL) | 2.4 log10CFU | 2.4 log10CFU |
| CCCC[C@H](CNC)N1CCN(CCC23CC4CC(CC(C4)C2)C3)[C@H](C(C)C)C1 | 47.5 µM | 65.5 µM | 100 µM (≈ 40.4 µg/mL) |  |  |  |  |  |
| CNC[C@@H](Cc1ccccc1)N1CCN(CC2CCC(C)CC2)[C@H](C(C)C)C1 (stereo partly drawn) |  | 85.5 µM | > 100 µM |  |  |  |  |  |
| CCC(C)[C@H](CNC)N1CCN(CCc2c[nH]c3ccccc23)[C@H](C(C)C)C1 (stereo partly drawn) |  | > 100 µM | > 100 µM |  |  |  |  |  |
| CCCC[C@@H](CNC)N1CCN(CCc2c[nH]c3ccccc23)[C@H](C(C)C)C1 |  | 85.3 µM | > 100 µM |  |  |  |  |  |
| CNC[C@@H](Cc1ccccc1)N1CCN(CCC23CC4CC(CC(C4)C2)C3)[C@H](CO)C1 |  | 75.6 µM | > 100 µM |  |  |  |  |  |
| CCCC[C@@H](CNC)N1CCN(CCC23CC4CC(CC(C4)C2)C3)[C@H](CO)C1 |  | 70.6 µM | > 100 µM |  |  |  |  |  |
| CCCC[C@@H](CNC)N1CCN(CCC23CC4CC(CC(C4)C2)C3)[C@H](C(C)C)C1 | 51.8 µM | 61.4 µM | 100 µM (≈ 40.4 µg/mL) |  |  |  |  |  |
| CCC(C)[C@H](CNC)N1CCN(CCC23CC4CC(CC(C4)C2)C3)[C@H](C(C)C)C1 (stereo partly drawn) | 37.4 µM | 99.5 µM | 100 µM (≈ 40.4 µg/mL) |  |  |  |  |  |
| CCCC[C@@H](CNC)N1CCN(CCC23CC4CC(CC(C4)C2)C3)[C@H](C(C)CC)C1 (stereo partly drawn) | 29.6 µM | 54.2 µM | 100 µM (≈ 41.8 µg/mL) |  |  |  |  |  |
| CNC[C@@H](CO)N1CCN(CCC(c2ccccc2)c2ccccc2)[C@H](CC2CCCCC2)C1 | 22 µM | 50 µM | 48.4 µM (≈ 22.4 µg/mL) |  |  |  |  |  |
| CNC[C@H](Cc1ccccc1)N1CCN(CCC23CC4CC(CC(C4)C2)C3)[C@H](CO)C1 | 54.6 µM | 66.1 µM | 100 µM (≈ 42.6 µg/mL) |  |  |  |  |  |
| CNCCN1CCN(CCC23CC4CC(CC(C4)C2)C3)[C@H](C(C)C)C1 |  | > 100 µM | > 100 µM |  |  |  |  |  |
| CNC[C@@H](CO)N1CCN(CCc2ccc(C)cc2)[C@H](CC2CCCCC2)C1 | 67 µM | 160 µM | 200 µM (≈ 77.5 µg/mL) |  |  |  |  |  |
| CNC[C@H](Cc1ccccc1)N1CCN(CCc2c[nH]c3ccccc23)[C@H](C(C)C)C1 |  | 88.1 µM | > 100 µM |  |  |  |  |  |
| CNC[C@@H](CC(C)C)N1CCN(CCc2ccc(C)cc2)CC1 | > 200 µM | > 200 µM | > 200 µM |  |  |  |  |  |
